One assay relates to rat liver AMPK. As to the kind of experiment: Allosteric activation and inhibition of native rat liver AMPK by AMP and ADP (SAMS peptide kinase assay). Type of assay: biochemical. Set-up: IC50/EC50: unit not given beside the values. Particulars: for maximal extent of activation: Discussion (for ADP: rat liver AMPK and human α2β2γ1 complex); for effect of CD73 in the assay on allosteric activation by the nucleotide: AMP 0.3 mM or ADP 1 mM, CD73 550 ng. The text has this:
To study allosteric effects, we initially used a preparation of native rat liver AMPK [4]. While not homogeneous, this preparation has a high specific kinase activity (1.3 µmol/min/mg) and is a combination of the α1, α2, β1, β2 and γ1 subunit isoforms (Supplementary Figure S1). Being from a mammalian source both β subunit isoforms would be N-myristoylated and we have shown previously that the preparation is not contaminated with any protein phosphatases that dephosphorylate Thr172 [4]. We assessed the potential allosteric effects of both AMP and ADP at three different concentrations of ATP. We maintained Mg^2+ ions at a constant 4.8 mM excess above total ATP, a design that ensures that the concentration of the Mg.ATP^2− complex varies as a fixed proportion of total ATP [19].
As previously reported, with AMP we obtained bell-shaped curves due to activation at low concentrations combined with inhibition at higher concentrations (Figure 1). We have previously shown that the allosteric activation is due to binding of AMP to one or more of the regulatory sites on the γ subunit, whereas the inhibition is due to binding of AMP at the catalytic site within the α subunit kinase domain [4]. Consistent with the fact that ATP competes with AMP at both sites, as the ATP concentration was progressively raised from 0.2 to 1.0 and 5 mM, the bell-shaped curves shifted to the right, towards higher concentrations of AMP. The data were fitted to an equation for activation at one site and inactivation at a second site, as detailed in the legend to Figure 1. The best-fit parameters are shown in Supplementary Table S1, and these values were used to draw the curves in Figure 1A–C; the best-fit estimates for EC50 and IC50 are indicated by dashed vertical lines, faint lines for AMP and heavier lines for ADP.
Figure 1. Allosteric activation of rat liver AMPK by AMP and ADP at three different concentrations of ATP. (A) 200 µM ATP; (B) 1 mM ATP; (C) 5 mM ATP. [Mg^2+] was maintained at a constant excess of 4.8 mM above [ATP] as recommended previously. Results (mean ± SD, n = 2) were fitted to the equation: Y = 1 + (((Activation-1) × X)/(EC50 + X))-(((activation) × X)/(IC50 + X)), where Y is the activity, X is the concentration of AMP or ADP, Activation is the extrapolated maximal activation by AMP or ADP, EC50 is the concentration of AMP or ADP causing half-maximal activation, and IC50 is the concentration of AMP or ADP causing half-maximal inhibition. The dashed vertical lines show the estimated EC50 and IC50 values, faint lines for AMP and bold lines for ADP. A reliable estimate of EC50 could not be computed for ADP at 0.2 mM ATP (graph (A)). Best-fit values of all parameters used to generate the curves are listed in Supplementary Table S1.
Figure 2. Allosteric activation of rat liver AMPK by AMP and ADP in the presence and absence of the nucleotidase CD73. Allosteric activation was assessed as in Figure 1 with a single fixed concentration of AMP or ADP (0.3 or 1 mM respectively) in the presence or absence of CD73 (550 ng). Statistical significance of differences in results (mean ± SEM, n = 3) were assessed by two-way ANOVA. Effect of nucleotide: ****P < 0.0001; effect of CD73: ^††††P < 0.0001, ns, not significant.
AMPK assays measured the transfer of radioactivity from [γ-^33P]ATP to a peptide substrate, which was separated from unreacted ATP by binding to P81 paper. This assay was described previously except that we used [γ-^33P] rather than [γ-^32P]ATP. In some assays (specified in Figure legends) the concentration of ATP was increased from 0.2 to 1 or 5 mM ATP, with MgCl2 concentrations maintained at a constant 4.8 mM excess above the concentration of ATP [19]. Where allosteric activation by AMP or ADP was being studied, we used the SAMS peptide as substrate. For all other assays the AMARA peptide was used.

In assay [1] the target is T1, human α2β2γ1 complex, CBS4 mutant (I312G) (Homo sapiens, UniProt P54619+P54646, I312G).
T1 construct: made in house; host or cells: Escherichia coli
T1 sequence (P54619 whole entry I312G): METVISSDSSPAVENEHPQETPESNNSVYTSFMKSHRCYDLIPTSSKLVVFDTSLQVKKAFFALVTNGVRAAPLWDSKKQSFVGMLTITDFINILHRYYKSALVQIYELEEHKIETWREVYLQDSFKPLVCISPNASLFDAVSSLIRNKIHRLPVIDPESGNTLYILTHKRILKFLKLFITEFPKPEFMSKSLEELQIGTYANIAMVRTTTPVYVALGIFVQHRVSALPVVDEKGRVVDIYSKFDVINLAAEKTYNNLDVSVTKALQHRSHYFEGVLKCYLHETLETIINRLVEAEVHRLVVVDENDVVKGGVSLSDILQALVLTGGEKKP
T1 sequence (P54646 whole entry): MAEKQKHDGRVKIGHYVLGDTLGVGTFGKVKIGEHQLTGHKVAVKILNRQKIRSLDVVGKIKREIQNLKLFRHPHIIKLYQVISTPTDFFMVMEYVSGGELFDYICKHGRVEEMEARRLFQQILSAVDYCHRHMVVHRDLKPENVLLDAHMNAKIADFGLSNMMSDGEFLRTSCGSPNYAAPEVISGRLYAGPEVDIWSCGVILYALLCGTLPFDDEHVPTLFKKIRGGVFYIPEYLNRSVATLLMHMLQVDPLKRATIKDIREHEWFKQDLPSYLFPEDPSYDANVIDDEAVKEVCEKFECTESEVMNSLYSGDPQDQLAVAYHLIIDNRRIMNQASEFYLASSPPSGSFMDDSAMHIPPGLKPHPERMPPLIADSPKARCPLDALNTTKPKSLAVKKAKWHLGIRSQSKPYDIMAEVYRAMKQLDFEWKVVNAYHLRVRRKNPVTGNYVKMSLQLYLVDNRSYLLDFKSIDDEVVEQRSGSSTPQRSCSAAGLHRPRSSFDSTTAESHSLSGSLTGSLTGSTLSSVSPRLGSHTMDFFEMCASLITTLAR
T1 sequence (O43741 whole entry partner): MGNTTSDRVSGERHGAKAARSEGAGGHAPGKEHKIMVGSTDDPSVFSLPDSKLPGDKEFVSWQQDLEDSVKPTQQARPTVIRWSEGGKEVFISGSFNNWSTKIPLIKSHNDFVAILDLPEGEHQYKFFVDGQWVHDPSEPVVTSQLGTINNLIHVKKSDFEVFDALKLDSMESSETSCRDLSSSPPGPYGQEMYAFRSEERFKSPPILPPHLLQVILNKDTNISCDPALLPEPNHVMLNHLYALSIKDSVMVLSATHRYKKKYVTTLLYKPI
In words: AMPK activation and Thr172 phosphorylation by the LKB1 complex, CBS4 mutant. Type of assay: biochemical. Particulars: 300 µM nucleotide, 200 µM ATP. The method, then: The relative roles of the three CBS sites in the other two mechanisms of activation of AMPK by AMP or ADP, i.e. promotion of Thr172 phosphorylation by LKB1, and protection against Thr172 dephosphorylation by protein phosphatases, have not been examined previously. As expected, incubation of the α2β2γ1 AMPK complex with a fixed, limiting amount of purified LKB1:STRADα:MO25α complex in the presence of 200 µM Mg.ATP^2− caused a large degree of activation (Figure 5A) and phosphorylation (Figure 5B) of AMPK (unphosphorylated α2β2γ1 complex), which were stimulated more than 2-fold by 300 µM AMP and 1.6-fold by 300 µM ADP.
Figure 5. Effects of AMP or ADP on AMPK activation and Thr172 phosphorylation by the LKB1:STRADα:MO25α complex. Unphosphorylated human α2β2γ1 complexes (WT, or with L129D/V130D, V276G/L277G or I312G mutations affecting CBS1, CBS3 or CBS4 respectively) were incubated with ATP and a fixed concentration of the LKB1:STRADα:MO25α complex in the presence or absence of AMP or ADP (both 300 µM), as described in the Materials and methods section. After the incubation aliquots were withdrawn for (A) AMPK assay or (B) Western blots. […] For (B), due to a limit on the number of lanes that could be run on one gel, single replicates from the triplicate assays were analysed. […]

Each structure is given as a SMILES string. “And” between values parts separate entries of the source, which are not always exact repeats. Equal values may be shown once.

In the case of `Nc1ncnc2c1ncn2[C@@H]1O[C@H](COP(=O)(O)OP(=O)(O)O)[C@@H](O)[C@H]1O` [ADP], the “maximal extent of activation” value in the assay with rat liver AMPK (5 mM ATP) is reported as “≈ 1.5 fold”. Also, in the assay on rat liver AMPK (rat liver AMPK, 0.2 mM ATP), the “Activation (extrapolated maximal activation)” value is “no activation was detectable and none”; the IC50 (in general, the concentration at which inhibition is half-maximal) is 400 µM. The “observed maximal extent of activation above basal” value in the assay on rat liver AMPK (rat liver AMPK, 1 mM ATP) was “≈ 25%”. Also, in the assay on rat liver AMPK (rat liver AMPK, 1.0 mM ATP), the “Activation (extrapolated maximal activation)” value was 2.4 fold and 2.4 (1.8 -??) fold; the concentration giving a half-maximal response (EC50) (as a rule, the midpoint of the concentration-response curve) was determined as 122 µM; the concentration for half-maximal inhibition (IC50) came out at 690 µM; the IC50/EC50 is 6 and 5.7. Further, in the assay on rat liver AMPK (rat liver AMPK, 5 mM ATP), the “observed maximal extent of activation above basal” value is on record as “≈ 50%”. Moreover, in the assay with rat liver AMPK (rat liver AMPK, 5.0 mM ATP), the “Activation (extrapolated maximal activation)” value is 2.0 fold and 2.0 (1.7 -2.8) fold; the 50% effective concentration (EC50) came to 220 µM; the IC50 worked out at 4000 µM; the IC50/EC50 is 18. Besides, the “effect of CD73 in the assay on allosteric activation by the nucleotide” value in the assay on rat liver AMPK (rat liver AMPK) is reported as “did not significantly affect”. Further, in assay [1], the “effect of nucleotide on activation/phosphorylation by LKB1 in the mutant” value was “abolished”.

For the compound `Nc1ncnc2c1ncn2[C@@H]1O[C@H](COP(=O)(O)O)[C@@H](O)[C@H]1O` [AMP], the “maximal extent of activation” value with rat liver AMPK (5 mM ATP) was found to be 3 fold. Further, in the assay with rat liver AMPK (rat liver AMPK, 0.2 mM ATP), the “Activation (extrapolated maximal activation)” value is listed as 2.9 (2.8 -3.0) fold, the EC50 is 6.4 µM, the IC50 turned out to be 1700 µM and the IC50/EC50 was found to be 270. Further, in the assay on rat liver AMPK (rat liver AMPK, 1.0 mM ATP), the “Activation (extrapolated maximal activation)” value is 2.8 (2.7-2.9) fold, the EC50 turned out to be 14 µM, the half-inhibitory concentration (IC50) came to 6900 µM and the IC50/EC50 is listed as 490. In the assay on rat liver AMPK (rat liver AMPK, 5.0 mM ATP), the “Activation (extrapolated maximal activation)” value was 3.7 (3.5-3.8) fold; the EC50 amounted to 36 µM; the IC50 turned out to be 17000 µM; the IC50/EC50 is ~500 and 470. Moreover, the “degree of activation over basal” value with rat liver AMPK (rat liver AMPK, 0.2 to 5 mM ATP) is reported as 3- to 4 fold. Besides, the “effect of CD73 in the assay on allosteric activation by the nucleotide” value in the assay with rat liver AMPK (rat liver AMPK) was “completely abolished”. Moreover, in assay [1], the “effect of nucleotide on activation/phosphorylation by LKB1 in the mutant” value is listed as “abolished”.

The record behind these values is paper PMC11088877, “AMP-activated protein kinase can be allosterically activated by ADP but AMP remains the key activating ligand” (Biochemical Journal, 2024).
